Data taken from patent US7449617B2, “Plants with elevated levels of gallic acid/polyphenol oxidase and methods of generating such plants” (The Regents of the University of California, priority 2004, dated 2008).

Test system: buffered rumen fluid
Test: In vitro gas production technique: incubation of alfalfa hays in buffered rumen fluid with added tannins, net ammonium-N in supernatant
Set-up: species or system cows
Settings: for % Difference from control / Net ammonium-N in supernatant: 72 h; for Net ammonium-N in supernatant: 30 ml buffered rumen fluid, SD in parenthesis; for Effect on ammonia-N (in words): in vitro rumen fluid system, preliminary study
Protocol: A preliminary in vitro study was conducted to evaluate GA and TA (tannic acid) and to compare this with CT (a source of condensed tannins). The study utilized an in vitro gas production technique that has been established and validated at UC Davis. This system uses canulated cows as a rumen fluid donor. […] The reduction in protein degradation and ammonia nitrogen accumulation was dependant on type of tannins and levels used in each of the experiments. […] [table]

[1] = CUF101, tannin added at 2% DM, Experiment 1
[2] = CUF101, tannin added at 4% DM, Experiment 1
[3] = CUF101, tannin added at 5% DM, Experiment 2
[4] = CUF101, tannin added at 6% DM, Experiment 1
[5] = CUF101, tannin added at 10% DM, Experiment 2
[6] = CUF101, tannin added at 15% DM, Experiment 2
[7] = CUF101 alfalfa hay 200 mg, tannin added at 2% DM, Experiment 1
[8] = CUF101 alfalfa hay 200 mg, tannin added at 4% DM, Experiment 1
[9] = CUF101 alfalfa hay 200 mg, tannin added at 5% DM, Experiment 2
[10] = CUF101 alfalfa hay 200 mg, tannin added at 6% DM, Experiment 1
[11] = CUF101 alfalfa hay 200 mg, tannin added at 10% DM, Experiment 2
[12] = CUF101 alfalfa hay 200 mg, tannin added at 15% DM, Experiment 2
[13] = Sutter alfalfa hay 200 mg, tannin added at 2% DM, Experiment 1
[14] = Sutter alfalfa hay 200 mg, tannin added at 4% DM, Experiment 1
[15] = Sutter alfalfa hay 200 mg, tannin added at 5% DM, Experiment 2
[16] = Sutter alfalfa hay 200 mg, tannin added at 6% DM, Experiment 1
[17] = Sutter alfalfa hay 200 mg, tannin added at 10% DM, Experiment 2
[18] = Sutter alfalfa hay 200 mg, tannin added at 15% DM, Experiment 2
[19] = Sutter, tannin added at 2% DM, Experiment 1
[20] = Sutter, tannin added at 4% DM, Experiment 1
[21] = Sutter, tannin added at 5% DM, Experiment 2
[22] = Sutter, tannin added at 6% DM, Experiment 1
[23] = Sutter, tannin added at 10% DM, Experiment 2
[24] = Sutter, tannin added at 15% DM, Experiment 2

Row | Compound | % Difference from control [1] | % Difference from control [2] | % Difference from control [3] | % Difference from control [4] | % Difference from control [5] [%] | % Difference from control [6] [%] | Net ammonium-N in supernatant [7] | Net ammonium-N in supernatant [8] | Net ammonium-N in supernatant [9] | Net ammonium-N in supernatant [10] | Net ammonium-N in supernatant [11] | Net ammonium-N in supernatant [12] | Net ammonium-N in supernatant [13] | Net ammonium-N in supernatant [14] | Net ammonium-N in supernatant [15] | Net ammonium-N in supernatant [16] | Net ammonium-N in supernatant [17] | Net ammonium-N in supernatant [18] | % Difference from control [19] | % Difference from control [20] [%] | also measured
1 | O=C(O)c1cc(O)c(O)c(O)c1 [GA, 3,4,5-trihydroxybenzoic acid] | +3.20% | +4.92% | +1.68% | +5.63% | −1.33 | −3.54 | 3.610 (0.338) mg | 3.670 (0.404) mg | 3.450 (0.240) mg | 3.695 (0.305) mg | 3.348 (0.254) mg | 3.273 (0.234) mg | 3.540 (0.432) mg | 3.608 (0.564) mg | 3.415 (0.191) mg | 3.575 (0.431) mg | 3.348 (0.206) mg | 3.298 (0.177) mg | +0.48% | −2.41 | % Difference from control [21]: +0.21%; % Difference from control [22]: +1.48%; % Difference from control [23]: −1.76%; % Difference from control [24]: −3.23%; Effect on ammonia-N (in words): did not show any affect
2 | O=C(OC[C@H]1O[C@@H](OC(=O)c2cc(O)c(O)c(OC(=O)c3cc(O)c(O)c(O)c3)c2)[C@H](OC(=O)c2cc(O)c(O)c(OC(=O)c3cc(O)c(O)c(O)c3)c2)[C@@H](OC(=O)c2cc(O)c(O)c(OC(=O)c3cc(O)c(O)c(O)c3)c2)[C@@H]1OC(=O)c1cc(O)c(O)c(OC(=O)c2cc(O)c(O)c(O)c2)c1)c1cc(O)c(O)c(OC(=O)c2cc(O)c(O)c(O)c2)c1 [TA, tannic acid] | −0.66% | −4.00% | −16.23% | −8.52% | −26.23 | −48.57 | 3.475 (0.269) mg | 3.358 (0.231) mg | 2.830 (0.435) mg | 3.200 (0.308) mg | 2.503 (0.177) mg | 1.745 (0.204) mg | 3.168 (0.737) mg | 3.250 (0.424) mg | 3.030 (0.167) mg | 2.998 (0.310) mg | 2.543 (0.208) mg | 1.888 (0.139) mg | −10.08% | −7.75 | % Difference from control [21]: −11.09%; % Difference from control [22]: −14.90%; % Difference from control [23]: −25.38%; % Difference from control [24]: −44.60%; Effect on ammonia-N (in words): effective in reducing ammonia-N
